Data reported in article PMC5731253 (Journal of medicinal chemistry, 2017).
“Also recorded” adds a separate entry of the source. Where two headings read alike, the source gives them in different places.

What was measured:
[1] = target: carboxypeptidase Y (Saccharomyces cerevisiae, UniProt P00729); test: Carboxypeptidase Y-mediated cleavage monitored by 31P-NMR; assay type: in vitro ADME; conditions: for time to complete conversion of the starting material: carboxypeptidase Y; for conversion of the starting material by carboxypeptidase Y: result in words
[2] = system: human embryonic lung (HEL) fibroblasts; test: Minimum cytotoxic concentration, HEL cell morphology
[3] = system: human embryonic lung (HEL) fibroblasts
[4] = system: HSV-2 (G); test: Anti-HSV-2; assay type: cell-based, herpes simplex virus type 2; conditions: HEL cell cultures
[5] = system: HSV-1 (KOS); test: Anti-HSV-1; assay type: cell-based, herpes simplex virus type 1; conditions: HEL cell cultures
[6] = system: thymidine kinase-deficient (TK−) HSV-1 KOS strain; assay type: cell-based, herpes simplex virus type 1; conditions: HEL cell cultures; for Antiviral Activity EC50 HSV-1 TK (KOS): TK-deficient, ACV-resistant strain
[7] = system: TK- VZV (07-1); assay type: cell-based, varicella-zoster virus
[8] = system: HIV-1; test: HIV-1 inhibition in MT-4 cell cultures; assay type: cell-based, human immunodeficiency virus type 1; conditions: HIV-1, MT-4 cells
[9] = system: HIV-1; test: HIV-1 inhibition in human tonsillar tissues ex vivo; assay type: cell-based, human immunodeficiency virus type 1; conditions: HIV-1 X4LAI.04, 12 days culture

Chain of carboxypeptidase Y (P00729 112-532): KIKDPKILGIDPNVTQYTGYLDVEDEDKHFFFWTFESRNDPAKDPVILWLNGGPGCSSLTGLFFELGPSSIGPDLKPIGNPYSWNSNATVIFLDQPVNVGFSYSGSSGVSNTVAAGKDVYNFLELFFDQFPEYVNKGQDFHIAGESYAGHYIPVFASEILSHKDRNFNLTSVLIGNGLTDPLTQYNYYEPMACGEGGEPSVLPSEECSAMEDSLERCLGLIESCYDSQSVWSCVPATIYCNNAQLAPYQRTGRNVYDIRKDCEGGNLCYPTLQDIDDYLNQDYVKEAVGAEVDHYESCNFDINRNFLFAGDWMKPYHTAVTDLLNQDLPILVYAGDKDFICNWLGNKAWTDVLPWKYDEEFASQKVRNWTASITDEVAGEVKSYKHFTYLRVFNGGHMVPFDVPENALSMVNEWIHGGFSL

SMILES | Cytotoxicity MCC ([2]; Table 4 (HCMV/VZV assays)) [µM] | Antiviral Activity EC50 HSV-1 TK (KOS) [6] | Cytotoxicity MCC ([2]; Table 3 (HSV assays)) [µM] | further results
C[C@H](NP(=O)(OCC(CO)CCn1cnc2c(Cl)nc(N)nc21)Oc1ccccc1)C(=O)OCc1ccccc1 (mixture of isomers) [Compound 60] | >100 |  |  | time to complete conversion of the starting material [1]: ≤ 0.5 h; conversion of the starting material by carboxypeptidase Y [1]: completely converted and full
Nc1nc(O)c2ncn(COC(CO)CO)c2n1 [Compound 1, ganciclovir, reference compound] |  |  |  | Cytotoxicity MCC [3]: >100 µM
Nc1nc2c(ncn2CCC(CO)CO)c(=O)[nH]1 [Compound 2, penciclovir, reference compound] |  |  |  | Cytotoxicity MCC [3]: >100 µM
Nc1nc(O)c2ncn(CSC(CO)CO)c2n1 [Compound 3] |  |  |  | Antiviral Activity EC50 HSV-2 (G) [4]: sub-micromolar activity; Antiviral Activity EC50 HSV-1 (KOS) [5]: sub-micromolar activity
CC(C)OC(=O)[C@H](C)NP(=O)(OCC(CO)OCn1cnc2c(=O)[nH]c(N)nc21)Oc1cccc2ccccc12 (stereo partly drawn) [Compound 16, 2-amino-9-{[(1,3-dihydroxypropan-2-yl)oxy]methyl}-6,9-dihydro-1H-purin-6-one-[1-naphthyl(isopropoxy-L-alaninyl)]phosphate] | >100 | marginal activity | >100 | conversion of the starting material by carboxypeptidase Y [1]: slow and incomplete conversion; also recorded: partial
CC(C)(NP(=O)(OCC(CO)OCn1cnc2c(=O)[nH]c(N)nc21)Oc1ccccc1)C(=O)OCc1ccccc1 (stereo not shown) [Compound 20] | >50 |  | >100 | fold difference in EC50 values between HSV-1 TK+ and TK− strains [6]: < 2.5 fold; fold more active than ACV against VZV TK− 07-1 strain [7]: ≥ 20 fold
C[C@H](NP(=O)(OCC(CO)OCn1cnc2c(=O)[nH]c(N)nc21)Oc1ccccc1)C(=O)OCc1ccccc1 (stereo partly shown) [Compound 27] | >100 |  | >100 | fold more active than ACV against VZV TK− 07-1 strain [7]: ≥ 20 fold
C[C@H](NP(=O)(OCC(CCn1cnc2c(=O)[nH]c(/N=C/N(C)C)nc21)COP(=O)(N[C@@H](C)C(=O)OCc1ccccc1)Oc1ccccc1)Oc1ccccc1)C(=O)OCc1ccccc1 (stereo partly shown) [Compound 30] |  | inactive | >100 | Antiviral Activity EC50 HSV-2 (G) [4]: inactive; Antiviral Activity EC50 HSV-1 (KOS) [5]: inactive
C[C@H](NP(=O)(OCC(CCn1cnc2c(=O)[nH]c(/N=C/N(C)C)nc21)COP(=O)(N[C@@H](C)C(=O)OCc1ccccc1)Oc1cccc2ccccc12)Oc1cccc2ccccc12)C(=O)OCc1ccccc1 (stereo partly shown) [Compound 31] |  | inactive |  | Antiviral Activity EC50 HSV-2 (G) [4]: inactive; Antiviral Activity EC50 HSV-1 (KOS) [5]: inactive
C[C@H](NP(=O)(OCC(CCn1cnc2c(=O)[nH]c(N)nc21)COP(=O)(N[C@@H](C)C(=O)OCc1ccccc1)Oc1cccc2ccccc12)Oc1cccc2ccccc12)C(=O)OCc1ccccc1 (stereo partly shown) [Compound 37] | >50 | inactive |  | Antiviral Activity EC50 HSV-2 (G) [4]: inactive; Antiviral Activity EC50 HSV-1 (KOS) [5]: inactive
CC(C)(NP(=O)(OCC(CCn1cnc2c(=O)[nH]c(N)nc21)COP(=O)(NC(C)(C)C(=O)OCc1ccccc1)Oc1ccccc1)Oc1ccccc1)C(=O)OCc1ccccc1 (stereo not shown) [Compound 38] | >50 | inactive | >100 | Antiviral Activity EC50 HSV-2 (G) [4]: inactive; Antiviral Activity EC50 HSV-1 (KOS) [5]: inactive
CC(C)(NP(=O)(OCC(CCn1cnc2c(=O)[nH]c(N)nc21)COP(=O)(NC(C)(C)C(=O)OCc1ccccc1)Oc1cccc2ccccc12)Oc1cccc2ccccc12)C(=O)OCc1ccccc1 (stereo not shown) [Compound 40] | >50 | inactive | 100 | Antiviral Activity EC50 HSV-2 (G) [4]: inactive; Antiviral Activity EC50 HSV-1 (KOS) [5]: inactive
C[C@H](NP(=O)(OCC(CO)CCn1cnc2c(=O)[nH]c(N)nc21)Oc1ccccc1)C(=O)OCc1ccccc1 (stereo partly shown) [Compound 42] | >50 |  | >100 | selectivity index (ratio IC50/EC50) [8]: > 15
C[C@H](NP(=O)(OCC(CO)CCn1cnc2c(=O)[nH]c(N)nc21)Oc1cccc2ccccc12)C(=O)OCc1ccccc1 (stereo partly shown) [Compound 45] | >50 |  | >100 | conversion of the starting material by carboxypeptidase Y [1]: slow and incomplete conversion; also recorded: partial
C[C@H](NP(=O)(OCC(COP(=O)(N[C@@H](C)C(=O)OCc1ccccc1)Oc1ccccc1)SCn1cnc2c(=O)[nH]c(N)nc21)Oc1ccccc1)C(=O)OCc1ccccc1 (stereo partly shown) [Compound 55] |  |  |  | Anti-HIV Activity EC50 [9]: did not inhibit HIV
C[C@H](NP(=O)(OCC(CCn1cnc2c(Cl)nc(N)nc21)COP(=O)(N[C@@H](C)C(=O)OCc1ccccc1)Oc1ccccc1)Oc1ccccc1)C(=O)OCc1ccccc1 (stereo partly shown) [Compound 59] |  |  |  | fold loss in antiviral activity versus mono-ProTide 60 [8]: 7 fold
CCCOC(=O)[C@H](C)NP(=O)(OCC(CCn1cnc2c(OC)nc(N)nc21)COP(=O)(N[C@@H](C)C(=O)OCCC)Oc1cccc2ccccc12)Oc1cccc2ccccc12 (stereo partly shown) [Compound 63] | ≥50 |  | ≥100 | conversion of the starting material by carboxypeptidase Y [1]: fast conversion; also recorded: partial
COc1nc(N)nc2c1ncn2CCC(CO)COP(=O)(N[C@@H](C)C(=O)OCc1ccccc1)Oc1ccccc1 (stereo partly shown) [Compound 66] |  | retention of some activity |  | selectivity index (ratio IC50/EC50) [8]: 21
COc1nc(N)nc2c1ncn2CCC(CO)COP(=O)(N[C@@H](C)C(=O)OCC(C)(C)C)Oc1cccc2ccccc12 (stereo partly shown) [Compound 68] | >50 | retention of some activity |  | 
CCCOC(=O)[C@H](C)NP(=O)(OCC(CO)CCn1cnc2c(OC)nc(N)nc21)Oc1cccc2ccccc12 (stereo partly shown) [Compound 69] | ≥50 |  | 100 | time to complete conversion of the starting material [1]: ≤ 2 h; conversion of the starting material by carboxypeptidase Y [1]: complete conversion and full
COc1nc(N)nc2c1ncn2CCC(CO)COP(=O)(N[C@@H](C)C(=O)OC1CCCCC1)Oc1cccc2ccccc12 (stereo partly shown) [Compound 72] |  | retention of some activity | ≥100 | 
CCOC(=O)[C@H](C)NP1(=O)OCC(OCn2cnc3c(=O)[nH]c(N)nc32)CO1 (stereo partly shown) [Compound 74] |  |  |  | selectivity index (ratio IC50/EC50) [8]: > 7
C[C@H](NP1(=O)OCC(OCn2cnc3c(Cl)nc(N)nc32)CO1)C(=O)OCc1ccccc1 (stereo partly shown) [Compound 75] |  |  |  | time to complete conversion of the starting material [1]: ≤ 1 h; conversion of the starting material by carboxypeptidase Y [1]: completely metabolised
CC(=O)OCC(COP(=O)(N[C@@H](C)C(=O)OCc1ccccc1)Oc1ccccc1)OCn1cnc2c(Cl)nc(N)nc21 (stereo partly shown) [Compound 77] |  |  |  | conversion of the starting material by carboxypeptidase Y [1]: quickly metabolised
